# Test results: patent publication US7629453B2, “NF-κB activating gene” (Asahi Kasei Pharma Corporation, priority 2000, dated 2009)
# Strand notation (5' to 3'): a small letter for the sugar, then the base; units joined by * are phosphorothioate-linked, units joined directly phosphodiester-linked; [ ] holds rarer units or linkages, { } end groups; capitals alone tell only the bases. Where a SMILES comes first, the peptide text is derived from it. The star is where a group is joined. Cbz = O=C(OCc1ccccc1)*; d = 2'-deoxy (DNA); r = 2'-OH (RNA)
# What was measured:
# Format in all cases: cell-based
# gene of SEQ ID NO:88 [1] = experiment: Expression inhibition of the gene of SEQ ID NO:88 by double stranded nucleic acid (NF-κB luciferase reporter, EBNA cells); conditions: for relative luciferase activity (%): 10 pmol per well, 24 hours, firefly standardized with Renilla, control without double stranded nucleic acid = 100%; for luciferase activity / expression of the protein of SEQ ID NO: 87 (in words): EBNA cells, Lipofectamine 2000, versus cells without double stranded nucleic acid
# Description: That is, using Lipofectamine 2000 (Invitrogen), an expression vector having the polynucleotide of SEQ ID NO:88, pNFkB-Luc, phRL-TK vector and double stranded nucleic acid (A) were co-transfected into EBNA cells, and after culturing, luciferase activity was measured.
# EBNA cells (Invitrogen) were inoculated on DMEM medium containing 5% FBS in a 96-well cell culture plate to a cell density of 1.2×10^4 cells/100 μl/well, and cultured for 24 hours at 37° C. in the presence of 5% CO2. Next, using Lipofectamine 2000 (Invitrogen), 50 ng of an expression vector having the polynucleotide of SEQ ID NO:88 and 50 ng of pNFkB-Luc (STRATAGENE) and 10 ng of phRL-TK vector (Promega Corporation) used as an internal standard, were co-transfected with double stranded nucleic acid 88-1 (10 pmol) prepared in (1) above into 1 well. After culturing for 24 hours at 37° C., firefly luciferase activity and Renilla reniformis luciferase activity were measured using a Dual-Luciferase Reporter Assay System (Promega Corporation). Further, each of 88-2 (10 pmol), 88-3 (10 pmol), 88-4 (10 pmol), 88-5 (10 pmol) or 88-6 (10 pmol) was co-transfected into 1 well in place of 88-1 (10 pmol), and luciferase activity was measured in the same manner. In Table 1, values for activity represent relative values when firefly luciferase activity in the control experiment (cells into which double stranded nucleic acid has not been introduced) is established as 100%. (It should be noted that values for firefly luciferase activity were standardized with values for Renilla reniformis luciferase activity used as an internal standard, before using these values in calculations.)
# gene of SEQ ID NO:88 [2] = experiment: as above; conditions: Lipofectamine 2000, versus cells without double stranded nucleic acid
# NF-κB activation = experiment: NF-κB reporter activity inhibition by proteasome inhibitor in 293-EBNA cells cotransfected with NF-κB activating protein expression vector and pNFκB-Luc; conditions: MG-132 0.1, 0.5, 1.0 and 10 μM added 1 hour after transfection; 293-EBNA cells with vector for protein of SEQ ID NO: 5, 9, 17 ... 178; 24 hours
# Description: 293-EBNA cells were seeded on 5% FBS containing DMEM medium in a 96-well cell culture plate to a final cell density of 1×10^4 cells/100 μl/well, and cultured for 24 hours at 37° C. in the presence of 5% CO2. Then, 50 ng of the expression vector comprising the gene encoding NF-κB activating protein of SEQ ID NO: 5, 9, 17, 21, 35, 37, 41, 53, 57, 63, 67, 71, 75, 81, 87, 91, 93, 97, 121, 123, 129, 154, 158, 162, 168, 170, 172, 176 or 178, and 50 ng of the reporter plasmid pNF κB-Luc were cotransfected into the cells in a well using FuGENE 6. After 1 hour, the proteasome inhibitor MG-132 (purchased form CALBIOCHEM) (Uehara T. et al., J. Biol. Chem. 274, p. 15875-15882 (1999); Wang X. C. et al., Invest. Ophathalmol. Vis. Sci. 40, p. 477-486) was added to the culture to final concentrations of 0.1 μM, 0.5 μM, 1.0 μM and 10 μM, respectively. After 24 hours of culture at 37° C., the reporter activity was measured using PIKKA GENE LT2.0.
Compound,relative luciferase activity (%) (gene of SEQ ID NO:88 [1]),luciferase activity / expression of the protein of SEQ ID NO: 87 (in words) (gene of SEQ ID NO:88 [1]),further results
"88-1: double stranded nucleic acid annealed from oligonucleotides A1 (SEQ ID NO: 185) and B1 (SEQ ID NO: 186), targeting SEQ ID NO: 88 (chain 1 rGrUrCrCrArGrGrArUrArUrCrArUrGrArGrUrCdTdT; chain 2 rGrArCrUrCrArUrGrArUrArUrCrCrUrGrGrArCdTdT; siRNA)",18,exhibited inhibition of firefly luciferase activity,luciferase activity / expression of the protein of SEQ ID NO: 87 (in words) (gene of SEQ ID NO:88 [2]): markedly lower
88-2: double stranded nucleic acid annealed from oligonucleotides A2 (SEQ ID NO: 187) and B2 (SEQ ID NO: 188) (chain 1 rGrArArGrUrCrUrGrArArGrArUrCrUrArUrCrCdTdT; chain 2 rGrGrArUrArGrArUrCrUrUrCrArGrArCrUrUrCdTdT; siRNA),12,exhibited inhibition of firefly luciferase activity,luciferase activity / expression of the protein of SEQ ID NO: 87 (in words) (gene of SEQ ID NO:88 [2]; listed as (B)): similarly inhibited
88-3: double stranded nucleic acid annealed from oligonucleotides A3 (SEQ ID NO: 189) and B3 (SEQ ID NO: 190) (chain 1 rGrCrUrGrArArGrArArGrArGrGrUrGrUrUrCrCdTdT; chain 2 rGrGrArArCrArCrCrUrCrUrUrCrUrUrCrArGrCdTdT; siRNA),9,exhibited inhibition of firefly luciferase activity,luciferase activity / expression of the protein of SEQ ID NO: 87 (in words) (gene of SEQ ID NO:88 [2]; listed as (C)): similarly inhibited
88-4: double stranded nucleic acid annealed from oligonucleotides A4 (SEQ ID NO: 191) and B4 (SEQ ID NO: 192) (chain 1 rGrArUrGrArCrArCrArGrArUrGrArArGrCrCrCdTdT; chain 2 rGrGrGrCrUrUrCrArUrCrUrGrUrGrUrCrArUrCdTdT; siRNA),8,exhibited inhibition of firefly luciferase activity,luciferase activity / expression of the protein of SEQ ID NO: 87 (in words) (gene of SEQ ID NO:88 [2]; listed as (D)): similarly inhibited
"88-5: double stranded nucleic acid annealed from oligonucleotides A5 (SEQ ID NO: 193) and B5 (SEQ ID NO: 194) (chain 1 GCCCUCAGAGUCCAGAAUCTT; chain 2 GAUUCUGGACUCUGAGGGCTT; siRNA; sugars from the 5' end r19 d2, backbone not given here)",5,exhibited inhibition of firefly luciferase activity,luciferase activity / expression of the protein of SEQ ID NO: 87 (in words) (gene of SEQ ID NO:88 [2]): similarly inhibited
"88-6: double stranded nucleic acid annealed from oligonucleotides A6 (SEQ ID NO: 195) and B6 (SEQ ID NO: 196) (chain 1 GAUGACUUUGGUAUCAAACTT; chain 2 GUUUGAUACCAAAGUCAUCTT; siRNA; sugars from the 5' end r19 d2, backbone not given here)",7,exhibited inhibition of firefly luciferase activity,luciferase activity / expression of the protein of SEQ ID NO: 87 (in words) (gene of SEQ ID NO:88 [2]; listed as (F)): similarly inhibited
"CC(C)C[C@@H](C=O)NC(=O)[C@H](CC(C)C)NC(=O)[C@H](CC(C)C)NC(=O)OCc1ccccc1 [MG132, MG-132] (Cbz-Leu-Leu-Leu-aldehyde)",–,–,expression of the reporter gene (NF-κB reporter activity) (NF-κB activation): inhibited the expression of the reporter gene
